Columns and labels:
[1] = system: A-375; assay: Percentage inhibition of proliferation against alive human A-375 cells treated with DMSO (control) at a concentration of 40 uM; assay type: functional
[2] = system: A-375; assay: Percentage of alive human A-375 cells relative to DMSO-treated control at a concentration of 10 uM
[3] = system: A-375; assay: Effect on alive human A-375 cell death treated with DMSO(control) at a concentration of 25 uM; assay type: functional
[4] = system: A-375; assay: Effect on necrotic human A-375 cell death treated with DMSO(control) at a concentration of 50 uM; assay type: functional
[5] = system: A-375; assay: Effect on alive human A-375 cell death treated with DMSO(control) at a concentration of 50 uM; assay type: functional
[6] = system: A-375; assay: Effect on alive human A-375 cell death treated with DMSO(control) at a concentration of 10 uM; assay type: functional
[7] = system: A-375; assay: Effect on apoptotic human A-375 cell death treated with DMSO(control) at a concentration of 10 uM; assay type: functional
[8] = system: A-375; assay: Effect on alive human A-375 cell death treated with DMSO(control) at a concentration of 40 uM; assay type: functional
[9] = system: A-375; assay: Effect on necrotic human A-375 cell death treated with DMSO(control) at a concentration of 10 uM; assay type: functional
[10] = system: A-375; assay: Percentage of alive human A-375 cells relative to DMSO-treated control at a concentration of 25 uM
[11] = system: A-375; assay: Effect on necrotic human A-375 cell death treated with DMSO(control) at a concentration of 25 uM; assay type: functional
[12] = system: A-375; assay: Effect on necrotic human A-375 cell death treated with DMSO(control) at a concentration of 40 uM; assay type: functional
[13] = system: A-375; assay: Percentage inhibition of proliferation against alive human A-375 cells treated with DMSO (control) at a concentration of 50 uM; assay type: functional
[14] = system: A-375; assay: Effect on apoptotic human A-375 cell death treated with DMSO(control) at a concentration of 40 uM; assay type: functional
[15] = system: A-375; assay: Effect on apoptotic human A-375 cell death treated with DMSO(control) at a concentration of 50 uM; assay type: functional
[16] = system: A-375; assay: Effect on apoptotic human A-375 cell death treated with DMSO(control) at a concentration of 25 uM; assay type: functional
[17] = system: A-375; assay: Percentage of alive human A-375 cells relative to DMSO-treated control at a concentration of 15 uM
[18] = system: A-375; assay: Percentage inhibition of proliferation against alive human A-375 cells treated with DMSO (control) at a concentration of 350 uM; assay type: functional

Compound `Cc1c(C(C)c2c(F)cccc2F)nc(SC2CCCC2)[nH]c1=O` (centres undefined) has an inhibition at 40 µM [1] of 65%, an alive cells at 10 µM [2] of 77% and an Activity [3] of 96.4%. For the same compound, the Activity [4] was 7.2%, the Activity [5] was 80% and the Activity [6] was 96.7%. For the same compound, the Activity [7] was 2.3%, the Activity [8] was 98.7% and the Activity [9] was 1%. For the same compound, the alive cells at 25 µM [10] was 72%, the Activity [11] was 1% and the Activity [12] was 0.3%. It also gave an inhibition at 50 µM [13] of 14%, an Activity [14] of 1% and an Activity [15] of 12.8%. For the same compound, the Activity [16] was 2.6%.
`Cc1c(C(C)c2c(F)cccc2F)nc(N(C)C)[nH]c1=O` (centres undefined) was tested, and the inhibition at 40 µM [1] was 42%, the alive cells at 10 µM [2] was 91% and the Activity [3] was 96.3%. It also gave an Activity [4] of 2.6%, an Activity [5] of 89% and an Activity [6] of 97.4%. For the same compound, the Activity [7] was 1.8%, the Activity [8] was 96% and the Activity [9] was 0.8%. It also gave an alive cells at 25 µM [10] of 86%, an Activity [11] of 1% and an Activity [12] of 0.9%. It also gave an inhibition at 50 µM [13] of 30%, an Activity [14] of 3.1% and an Activity [15] of 8.4%. It also gave an Activity [16] of 2.3%.
With `O=C1Nc2ccc(Cl)cc2[C@@](C#CC2CC2)(C(F)(F)F)O1` [EFAVIRENZ] the alive cells at 15 µM [17] was 51%.
With `Cc1ccnc2c1NC(=O)c1cccnc1N2C1CC1` [NEVIRAPINE] the inhibition at 350 µM [18] was 35%.
